Data on one molecule can be found in article PMC7995890, “Inhibition of Phosphodiesterase 5 Promotes the Aromatase-Mediated Estrogen Biosynthesis in Osteoblastic Cells by Activation of cGMP/PKG/SHP2 Pathway” (Frontiers in Endocrinology, 2021).

The test concerns the target PDE5A (Homo sapiens, UniProt O76074). The test is described as follows: PDE-Glo assay with purified recombinant human PDE5A; supported by cellular thermal shift assay in HEK293T lysate. The class given is biochemical.

Usually IC50 stands for the concentration that gives 50% inhibition. Consider `COc1ccc(-c2oc3c(CC=C(C)C)c(OCc4ccccc4)cc(O)c3c(=O)c2O)cc1` [compound 14, 7-O-benzylicaritin], for which the IC50 came to 9.91 µM.
